In patent publication US8258128B2, “Organic compounds” (Novartis AG, priority 2006, dated 2012):
Several values for one entry are separate records, joined by “and”; a condition that tells them apart may be missing. Equal values may be shown once. Marks after values point to notes of the source that are not given here.

What was measured:
[1] = system: urate crystal induced synovitis of the stifle joint in dogs; experiment: Urate crystal induced synovitis of the stifle joint in dogs, force plate analysis; assay type: in vivo, dog; conditions: for Z peak force of the injected rear leg, percent of pre-values, Mean: six dogs
Text: Objective: The objective of this study is to evaluate the analgesic and anti-inflammatory effect of a single dose of COMPOUND A using a model of urate crystal induced synovitis of the stifle joint in dogs via kinetic gait analysis (force plate).
Animals: A total of six Beagle dogs (4 males and 2 females) aged between 2 and 9 years and weighing 13 to 15.8 kg are recruited for this study. The dogs are housed in groups of two in light and temperature controlled pens. Each dogs is offered 150-300 g dry pellet food once a day in the morning. Water is available ad libitum through nipple drinkers.
Acute synovitis model: In this study, acute but reversible arthritis is induced by intra-articular (left or right stifle joint) injection of a saline (NaCl 0.9%) suspension containing 15 mg of monosodium urate crystals.
Intra-articular injections: Dogs are sedated with medetomidine (40 microg/kg, i.v.). The left of right stifle joint is clipped and prepared aseptically for intrasynovial injection. A 20-gauge needle is inserted lateral to the patellar ligament and introduced into the articular space. To ensure correct placement of the needle, a small amount of synovial fluid is aspirated with an empty 2 ml syringe. Then, approximately 2 ml of the monosodium urate suspension is injected in the joint cavity through the previously placed needle. Sedation is then antagonized with injection of atipamezol (40 μg/kg, i.v.). Dogs are then brought back to their pens for approximately 3 hours. Usually, after this period, the lameness induced by the injection of the monosodium urate crystals suspension is developed to a point where the dogs become non-weight-bearing on the injected leg during standing, walking and trotting. If at this time the dog's lameness grade is not sufficient, the dogs are excluded from this part of the trial.
Treatments: According to the protocol, both treatments are administered via the oral route approximately 3 hours after the injection of the monosodium urate crystals suspension, and only to the dogs that developed a high-grade lameness. For part 1, half of the dogs are allocated to the COMPOUND A-treated group and the other dogs are allocated to the control group. For part 2, treatments are crossed, so that dogs that are treated with COMPOUND A in part 1 are administered the placebo treatment, and vice versa. The treatments are administered at the doses of 0 mg/kg (placebo) and 2 mg/kg. COMPOUND A is mixed to a placebo formulation (micro-emulsion vehicle without active ingredient) just before administration. The appropriate volumes based on the dogs' bodyweights are given per os with syringes. Thereafter, all syringes are rinsed with NaCl 0.9% and applied to the dogs. The control dogs receive 10 ml of the identical placebo formulation.
Force plate analysis: A biomechanical platform (OR6-6-1000, Advanced Mechanical Technologies Inc., Watertown, Mass.) that measures 3 dimensional forces and impulses is used for our study. The dogs are trotted over the force plate 1, 2, 3, 4 and 6 hours after administration of the treatments to obtain data of vertical forces and impulses of the affected limb. Baseline values included force plate data obtained the day before the induction of lameness and are set as 100% of the dog's capacity. In order to minimize the effect of inter-individual variation we choose to calculate and express the measured data as percentage of the baseline values. By use of a software (Acquire Software 7.20e, Robert Wells, Mich. State University, East Lansing, Mich.) installed with the force plate and a computer, the vertical peak force (ZpkF) is measured. All data are normalized to the bodyweight of the dogs. Data on other ground reaction forces (e.g. vertical impulse, braking and propulsion peak forces) are also recorded and stored but not analyzed. Data from 5 to 6 valid trials of the injected limb at a given measurement time point are averaged and expressed as percentage of the pre-values. […]

[2] = system: collagen-induced arthritis in the rats; experiment: Collagen-induced arthritis in the rats, histological evaluation of hind paws; assay type: in vivo, rat; conditions: day 11
Description: Method: For this study, COMPOUND A and COX-inhibitor Diclofenac are dissolved in a solvent containing 5% of glucose (5 ml/kg). Compounds are given orally once a day. Female rats of the WAGxBUF/F1 crossbred strain (weight 130 g) are used. The animals are divided into several groups, one placebo group (N=8), and four treatment groups (each N=7-8). Treatment starts on peak of disease (day 0) and continues for 11 days. Swelling is assessed at regular time intervals by measuring the external thickness of the hind paws in the region of the metatarsals using a micro-caliper. Tissue samples for histological evaluation are obtained at the end of the in vivo experiment, 5 h after the last oral dose of COMPOUND A or placebo on day 11.
Hind paws from control arthritic rats (vehicle-treated), taken post-mortem at the end of day 11 of the treatment, obtained relatively high histological scorings compared to histological scores of animals treated with COMPOUND A (0.3, 1, 3 and 9 mg/kg) or Diclofenac (1 mg/kg).

**Q.** Which “Z peak force of the injected rear leg, percent of pre-values, individual dogs” value ([1]; 2 mg/kg p.o., T + 1 H) does the source give for COC1=Nc2cc(Cl)ccc2/C(=C/C(=O)O)c2sc(Cl)cc21 [COMPOUND A, [2,7-Dichloro-10-methoxy-3-thia-9-aza-benzo[f]azulen-(4Z)-ylidene]-acetic acid] here?
**A.** 0.0%

**Q.** What about the “Z peak force of the injected rear leg, percent of pre-values, Mean” value (shortened to “Z peak force … percent of pre-values, Mean”) ([1]; 2 mg/kg p.o., T + 1 H) of the same compound?
**A.** 0.0%

**Q.** What about the “Z peak force of the injected rear leg, percent of pre-values, individual dogs” value ([1]; 2 mg/kg p.o., T + 2 H) of the same compound?
**A.** 0.0% (5×) and 65.8%

**Q.** And the “Z peak force … percent of pre-values, Mean” value ([1]; 2 mg/kg p.o., T + 2 H)?
**A.** 11.0%

**Q.** And the “Z peak force of the injected rear leg, percent of pre-values, individual dogs” value ([1]; 2 mg/kg p.o., T + 3 H)?
**A.** 86.7% and 93.8% and 71.9% and 79.1% and 0.0% (2×)

**Q.** And the “Z peak force … percent of pre-values, Mean” value ([1]; 2 mg/kg p.o., T + 3 H)?
**A.** 55.2%

**Q.** What about the “Z peak force of the injected rear leg, percent of pre-values, individual dogs” value ([1]; 2 mg/kg p.o., T + 4 H) of the same compound?
**A.** 80.9% and 87.1% and 103.1% and 82.5% and 58.2% and 0.0%

**Q.** And the “Z peak force … percent of pre-values, Mean” value ([1]; 2 mg/kg p.o., T + 4 H)?
**A.** 68.6%

**Q.** What about the “Z peak force of the injected rear leg, percent of pre-values, individual dogs” value ([1]; 2 mg/kg p.o., T + 6 H) of the same compound?
**A.** 78.5% and 106.1% and 87.7% and 85.2% and 83.7%

**Q.** And the “Z peak force … percent of pre-values, Mean” value ([1]; 2 mg/kg p.o., T + 6 H)?
**A.** 91.2%

**Q.** And the “Z peak force of the injected rear leg, percent of pre-values, individual dogs” value ([1]; Prevs (day before induction of lameness, set as 100%), 2 mg/kg p.o. group, dogs 519, 525, 652, 664, 2201, 2207)?
**A.** 100.0%

**Q.** What about the “Z peak force … percent of pre-values, Mean” value ([1]; Prevs (set as 100%), 2 mg/kg p.o. group) of the same compound?
**A.** 100.0%

**Q.** And the “Bone apposition, effect on histological score” value ([2]; 0.3 mg/kg/day p.o.)?
**A.** +4%

**Q.** What about the “Cartilage damage, effect on histological score” value ([2]; 0.3 mg/kg/day p.o.) of the same compound?
**A.** −6%

**Q.** And the “Infiltration of cells, effect on histological score” value ([2]; 0.3 mg/kg/day p.o.)?
**A.** +8%

**Q.** And the “Loss of PG, effect on histological score” value ([2]; 0.3 mg/kg/day p.o.)?
**A.** +1%

**Q.** What about the “Bone apposition, effect on histological score” value ([2]; 1 mg/kg/day p.o.) of the same compound?
**A.** −28%

**Q.** What about the “Cartilage damage, effect on histological score” value ([2]; 1 mg/kg/day p.o.) of the same compound?
**A.** −24%

**Q.** And the “Infiltration of cells, effect on histological score” value ([2]; 1 mg/kg/day p.o.)?
**A.** −7%

**Q.** And the “Loss of PG, effect on histological score” value ([2]; 1 mg/kg/day p.o.)?
**A.** −13%

**Q.** What about the “Bone apposition, effect on histological score” value ([2]; 3 mg/kg/day p.o.) of the same compound?
**A.** −35% *

**Q.** And the “Cartilage damage, effect on histological score” value ([2]; 3 mg/kg/day p.o.)?
**A.** −40% *

**Q.** And the “Infiltration of cells, effect on histological score” value ([2]; 3 mg/kg/day p.o.)?
**A.** −25%

**Q.** And the “Loss of PG, effect on histological score” value ([2]; 3 mg/kg/day p.o.)?
**A.** −28% *

**Q.** What about the “Bone apposition, effect on histological score” value ([2]; 9 mg/kg/day p.o.) of the same compound?
**A.** −51% **

**Q.** What about the “Cartilage damage, effect on histological score” value ([2]; 9 mg/kg/day p.o.) of the same compound?
**A.** −56% ***

**Q.** What about the “Infiltration of cells, effect on histological score” value ([2]; 9 mg/kg/day p.o.) of the same compound?
**A.** −34% **

**Q.** What about the “Loss of PG, effect on histological score” value ([2]; 9 mg/kg/day p.o.) of the same compound?
**A.** −40% *
